{"source": "patent US12233060B2", "about": "“Inhibitors of Ataxia-Telangiectasia Mutated and Rad3-related protein kinase (ATR) for use in methods of treating cancer” (THE INSTITUTE OF CANCER RESEARCH: ROYAL CANCER HOSPITAL, priority 2016, dated 2025)", "key": {"[1]": {"tested_on": "HCT116 ARID1A−/− xenografts", "test": "In vivo efficacy, HCT116 ARID1A−/− subcutaneous xenografts", "set-up": "species or system mice", "method": "FIG. 3. In vivo ARID1A/ATR synthetic lethality. A. Schematic of VX-970 therapy experiment in mice bearing established HCT116 ARID1A^+/+ and ARID1A^−/− xenografts. Cells were inoculated subcutaneously into nude mice and tumors allowed to establish for 10 days. Mice were then randomized to treatment regimens of either VX-970 (60 mg/kg, 4× weekly by oral gavage) or vehicle. Mice were then treated for a subsequent 40 days. Tumor volume was monitored twice weekly. B. Relative tumor volume plot from (A) showing efficacy of VX-970 and selectivity for ARID1A^−/− xenografts* p=0.024, ANOVA. C. Schematic of tumor incidence experiment in mice with non-established HCT116 ARID1A^+/+ and ARID1A^−/− xenografts. Mice were inoculated with cells as before, randomized and then treated with VX-970. VX-970 or vehicle treatment was initiated on the day of cell implantation. Tumor volume was monitored twice weekly and overall tumour incidence was assessed 40 days later. D. Bar chart of incidence 40 days after implantation of HCT116 ARID1A^+/+ and ARID1A^−/− cells. Each group contained 15 animals and fractions above bars indicate the number of animals in which a measurable xenograft formed. *p=0.027 Fisher's exact test. E and F. Tumor growth in experiment described in (C). *p=0.015 ANOVA. G. VX-970 dose response curves from TOV21G (ARID1A mutant) and RMG1 (ARID1A wildtype) cells. Cells were exposed to VX-970 for 5 days. […] PARP-1, cleaved PARP-1 (85 kDa fragment) and tubulin were detected by western blot. […] Caspase3/7 activity was assessed using Caspase-Glo and total cellular viability was estimated using CellTitre-Glo. Luminescence ratios for Caspase-Glo (i.e. apoptotic cells) and CellTitre-Glo (ie viable cells) was determined for each dose and normalized to DMSO treated samples. *Student's t-test, p<0.05. […]\nIn vivo efficacy studies were performed using HCT116 […], HCT116 ARID1A^−/− and TOV21G cells injected subcutaneously in the flank of female CD-1 Nude mice. […] Tumours were measured manually by calliper trice weekly and animals were sacrificed when tumours reached >15 mm in any direction."}, "[2]": {"tested_on": "HCT116 ARID1A+/+ and ARID1A−/− cells", "test": "Cell cycle analysis of synchronized cells (G2/M fraction, FACS)", "type": "cell-based, human", "details": "double thymidine block, release into VX-970 (500 nM)", "method": "FIG. 5. ATRi effect on cell cycle progression, chromosomal instability, DNA damage and apoptosis. A. Barchart illustrating G2/M fraction in HCT116 ARID1A^+/+ and ARID1A^−/− cells synchronized in G1/early S phase by double thymidine block and released into fresh media containing DMSO or VX-970 (500 nM). The percentage of cells in G2/M was measured by FACS following PI staining. […] Cells were stained with DAPI. A minimum of 50 anaphases were scored in 3 biological replicate experiments. *p=0.023, Student's t-test. C. Bar chart illustrating frequency of anaphase bridges in TOV21G cells exposed to VX-970 (0.5 uM) or DMSO for 8 hours prior to fixation. Experiment performed as for (B). p=0.006 Student's t-test. D. Mitotic spread images from HCT116 ARID1A^+/+ and ARID1A^−/− cells following exposure to either DMSO or VX-970 (1 uM). Scale bar represents 20 um. E. Bar chart illustrating extent of chromosomal abnormalities in HCT116 ARID1A^+/+ and ARID1A^−/− cells exposed to VX-970 (1 uM). *p<0.05, Student's t-test. […]\nCells were plated at a density of 2×10^5 cells per well of a six-well plate and incubated for 24 hours after which ATRi or 0.1% DMSO was added for the indicated period of time. […] Samples were analyzed on a BD LSR II flow cytometer using BD FACSDiva software (BD Biosciences). […]"}, "[3]": {"tested_on": "synovial sarcoma PDX SA13412", "test": "Synovial sarcoma patient-derived xenograft treatment", "type": "in vivo, mice"}}}
{"smiles": "CNCc1ccc(-c2cc(-c3nc(-c4ccc(S(=O)(=O)C(C)C)cc4)cnc3N)on2)cc1", "note": "[VX-970, 5-[4-(Isopropylsulfonyl)phenyl]-3-(3-{4-[(methylamino)methyl]phenyl}-1,2-oxazol-5-yl)-2-pyrazinamine]", "values": [{"measurement": "growth of established ARID1A−/− xenografts", "setting": "[1]; 60 mg/kg, 4x weekly oral gavage, 40 days", "result": "significantly inhibited the growth"}, {"measurement": "growth of ARID1A−/− tumours under continued treatment", "setting": "[1]; non-established xenograft experiment, p=0.015 ANOVA", "result": "dramatically slowed the growth"}, {"measurement": "frequency of ARID1A−/− tumour formation", "setting": "[1]; treatment from day of cell implantation, incidence 40 days later, 15 animals per group", "result": 27, "unit": "%"}, {"measurement": "G2/M delay in ARID1A−/− cells", "setting": "[2]", "result": "abrogated the G2/M delay"}, {"measurement": "tumour growth in PDX SA13412", "setting": "[3]; established PDX, ANOVA p<0.0001", "result": "inhibition of tumour growth"}, {"measurement": "survival time of PDX-bearing mice", "setting": "[3]; log rank Mantel p=0.026", "result": "increase in survival time"}]}
